From patent US11518763B2 (SCOHIA PHARMA, INC., priority 2018, dated 2022)
Where two headings read alike, the source gives them in different places.

Key:
[1] = amide bond, DMF
[2] = biological target: T1, binding between NRF2 and KEAP1 (biotinylated human KEAP1 protein (Kelch domain), TAMRA-labeled NRF2 peptide) (Homo sapiens, UniProt Q14145); test: Measurement of activity of inhibiting NRF2 binding (NRF2-KEAP1 TR-FRET); details: inhibition rate relative to control at 100 nM test compound, TR-FRET, 60 min at room temperature; for inhibition at 0.1 µM: read-out: NRF2 binding inhibitory activity (at 100 nM)
T1 construct: biotinylated human KEAP1 protein (Kelch domain); biotin (biotinylated)
Procedure: Test Example 1: Measurement of Activity of Inhibiting NRF2 Binding
The inhibitory activity of test compounds against the binding between NRF2 and KEAP1 was measured by Time Resolved Fluorescence Resonance Energy Transfer (TR-FRET) method. Into a 384 well plate, 2 μL of a compound, 2 μL of 2 nM solution of biotinylated human KEAP1 protein (Kelch domain), 2 μL of 14 nM solution of TAMRA-labeled NRF2 peptide (TAMRA-Abu(4)-VWYTDIRMRDWM-OH), and 2 μL of 2 nM solution of Tb-labeled streptavidin, all solutions diluted with assay buffer (25 mM HEPES, pH7.5, 150 mM NaCl, 0.01% Tween-20), were added. For some wells, the KEAP1 protein was not added to define control wells. The plate was incubated at room temperature for 60 minutes, and time-resolved fluorescence was measured with a plate reader Envision (manufactured by PerkinElmer). The inhibitory activity for each compound at a compound concentration of 100 nM were calculated as a relative activity value by setting the fluorescence intensity of control wells to which the KEAP1 protein was not added as 100% inhibition, and the fluorescence intensity of wells to which no compound was added as 0%.
The measurement results according to the method described above (inhibition rate of signal value relative to control at 100 nM of test compound) are shown in Table 3.

[3] = test system: Nqo1 mRNA; test: Expression of NRF2-downstream gene Nqo1 mRNA in rat kidney and liver after oral administration; type: in vivo; details: 17 h, male SD rats, 3 mg/kg oral, about 17 hours after administration, read-out: Nqo1 mRNA expression (fold change vs vehicle)
Procedure: Test Example 2: Activity of Compound on Expression of NRF2-Downstream Gene in Rat Kidney and Liver
For the NRF2-downstream gene, Nqol mRNA was examined in regard to the expression level in kidney. Compounds were prepared into 0.5% methylcellulose (MC, METOLOSE, Shin-Etsu Chemical Co., Ltd.) suspensions, and were orally administered to male SD rats (CLEA Japan, Inc.) in a dose of 5 mL/kg. About 17 hours after the administration, the rats were euthanized under anesthesia, and their kidneys and livers were collected. By using an extraction kit, QIAsymphony RNA kit (QIAGEN, catalog number 931636) or RNeasy 96 Kit (QIAGEN, catalog number 74182), total RNA was extracted. From the total RNA thus obtained, cDNA was produced by using a cDNA synthesis kit, Superscript IV VIVO Master Mix (Thermo Fisher Scientific, catalog number 11754-250). By using the cDNA thus obtained with Taqman Fast Advanced Master Mix (Thermo Fisher Scientific, catalog number 4444557) or Platinum Quantitative PCR SuperMix (Thermo Fisher Scientific, catalog number 11743-500), and primers and a probe, the sequences of SEQ ID NO:1. SEQ ID NO:2, and SEQ ID NO: 3, which are shown in Table 4, real-time quantitative PCR was conducted with 7900HT Fast Real-Time PCR Systems or ViiA7 Fast Real-Time PCR Systems (Applied Biosystems). The expression level of Nqol mRNA in each organ of the rat to which the vehicle, 0.5% MC solution, was administered is defined as 1, and the variation is shown in Table 5.

T1 sequence (Q14145 321-609 limits assumed): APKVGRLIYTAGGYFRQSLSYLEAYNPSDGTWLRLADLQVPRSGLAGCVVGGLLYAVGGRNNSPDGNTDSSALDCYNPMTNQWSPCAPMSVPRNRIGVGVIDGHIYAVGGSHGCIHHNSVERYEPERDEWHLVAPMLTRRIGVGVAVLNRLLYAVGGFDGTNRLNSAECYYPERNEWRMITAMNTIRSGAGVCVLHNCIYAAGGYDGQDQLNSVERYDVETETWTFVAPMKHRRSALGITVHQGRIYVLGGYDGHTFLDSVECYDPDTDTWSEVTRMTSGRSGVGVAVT

Structure (SMILES)	inhibition at 0.1 µM [2]	fold induction at 3 mg/kg ([3]; Kidney)	other results
CCOC(=O)CC1c2ccc3c(c2)CN(CC3)C(=O)c2ccc(cc2)COCCCn2nnc3c(C)c1ccc32 (stereo not shown)	–	–	ring closure, yield of all isomers ([1]; from CCOC(=O)CC(c1ccc2c(c1)CN(C(=O)OC(C)(C)C)CC2)c1ccc2c(nnn2CCCOCc2ccc(C(=O)OC(C)(C)C)cc2)c1C, HATU, 23.0 mM, 25.0 °C, 3.0 h, 2 steps): 67.7%
COC(=O)C(C)(C)C1c2ccc3c(c2)CN(CC3)C(=O)c2c(Cl)cc(cc2Cl)OCCCCn2nnc3c(C)c1ccc32 (stereo not shown)	–	–	ring closure, yield of all isomers ([1]; from COC(=O)C(C)(C)C(c1ccc2c(c1)CNCC2)c1ccc2c(nnn2CCCCOc2cc(Cl)c(C(=O)O)c(Cl)c2)c1C, HATU/DIPEA, 15.2 mM, 25.0 °C, 4.0 h): 47.5%
COC(=O)C(C)(C)C1c2ccc3c(c2)CN(CC3)C(=O)c2ccc(cc2)CCCCCn2nnc3c(C)c1ccc32 (stereo not shown)	–	–	ring closure, yield of all isomers ([1]; from COC(=O)C(C)(C)C(c1ccc2c(c1)CNCC2)c1ccc2c(nnn2CCCCCc2ccc(C(=O)O)cc2)c1C, HATU, 17.6 mM, 30.0 °C, 19.0 h): 12.4%
CCc1cc2ccc1C(=O)N1CCc3ccc(cc3C1)C(CC(=O)O)c1ccc3c(nnn3CCCCC2)c1C (racemic) [Example 3, [18-Ethyl-32-methyl-20-oxo-8,9,10,21-tetraazahexacyclo[19.5.3.2^16,19.1^3,7.0^6,10.0^24,28]dotriaconta-1(26),3(32),4,6,8,16,18,24,27,30-decaen-2-yl]acetic acid]	100%	4.7	–
Cc1c2ccc3c1nnn3CCCCCc1ccc(c3c1OCC3)C(=O)N1CCc3ccc(cc3C1)C2CC(=O)O (racemic) [Example 4, [33-Methyl-2-oxo-7-oxa-1,15,16,17-tetraazaheptacyclo[22.5.3.2^3,9.1^18,22.0^4,8.0^15,19.0^27,31]pentatriaconta-3,8,16,18(33),19,21,24,26,31,34-decaen-23-yl]acetic acid]	100%	6.8	–
Cc1c2ccc3c1nnn3CCCCCc1ccc(c3c1OC(C)(C)C3)C(=O)N1CCc3ccc(cc3C1)C2CC(=O)O (racemic) [Example 5, [6,6,33-Trimethyl-2-oxo-7-oxa-1,15,16,17-tetraazaheptacyclo[22.5.3.2^3,9.1^18,22.0^4,8.0^15,19.0^27,31]pentatriaconta-3,8,16,18(33),19,21,24,26,31,34-decaen-23-yl]acetic acid]	100%	3.3	–
Cc1c2ccc3c1nnn3CCCCCc1ccc(c3c1CCO3)C(=O)N1CCc3ccc(cc3C1)C2CC(=O)O (racemic) [Example 7, [33-Methyl-2-oxo-5-oxa-1,15,16,17-tetraazaheptacyclo[22.5.3.2^3,9.1^18,22.0^4,8.0^15,19.0^27,31]pentatriaconta-3,8,16,18(33),19,21,24,26,31,34-decaen-23-yl]acetic acid]	100%	4.3	–
Cc1c2ccc3c1nnn3CCCCCc1ccc(c(Cl)c1)C(=O)N1CCc3ccc(cc3C1)C2CC(=O)O (racemic) [Example 9, [18-Chloro-32-methyl-20-oxo-8,9,10,21-tetraazahexacyclo[19.5.3.2^16,19.1^3,7.0^6,10.0^24,28]dotriaconta-1(26),3(32),4,6,8,16,18,24,27,30-decaen-2-yl]acetic acid]	100%	5.5	–
Cc1c2ccc3c1nnn3CCCCCc1ccc(c(F)c1)C(=O)N1CCc3ccc(cc3C1)C2CC(=O)O (racemic) [Example 10, [18-Fluoro-32-methyl-20-oxo-8,9,10,21-tetraazahexacyclo[19.5.3.2^16,19.1^3,7.0^6,10.0^24,28]dotriaconta-1(26),3(32),4,6,8,16,18,24,27,30-decaen-2-yl]acetic acid]	100%	5.9	–
Cc1c2ccc3c1nnn3CCCOCc1ccc(c(F)c1)C(=O)N1CCc3ccc(cc3C1)C2CC(=O)O (racemic) [Example 21, [18-Fluoro-32-methyl-20-oxo-14-oxa-8,9,10,21-tetraazahexacyclo[19.5.3.2^16,19.1^3,7.0^6,10.0^24,28]dotriaconta-1(26),3(32),4,6,8,16,18,24,27,30-decaen-2-yl]acetic acid]	100%	5	–
Cc1c2ccc3c1nnn3CCOCCc1ccc(cc1)C(=O)N1CCc3ccc(cc3C1)C2CC(=O)O (racemic) [Example 29, [32-Methyl-20-oxo-13-oxa-8,9,10,21-tetraazahexacyclo[19.5.3.2^16,19.1^3,7.0^6,10.0^24,28]dotriaconta-1(26),3(32),4,6,8,16,18,24,27,30-decaen-2-yl]acetic acid]	100%	5.9	–
Cc1c2ccc3c1nnn3CCCCCc1ccc(cc1)C(=O)N1CCc3ccc(cc3C1)C2CC(=O)O (stereo not shown) [Example 11, [32-Methyl-20-oxo-8,9,10,21-tetraazahexacyclo[19.5.3.2^16,19.1^3,7.0^6,10.0^24,28]dotriaconta-1(26),3(32),4,6,8,16,18,24,27,30-decaen-2-yl]acetic acid]	100%	8	–
Cc1c2ccc3c1nnn3CCCOCc1ccc(cc1)C(=O)N1CCc3ccc(cc3C1)C2CC(=O)O (stereo not shown) [Example 25, [32-Methyl-20-oxo-14-oxa-8,9,10,21-tetraazahexacyclo[19.5.3.2^16,19.1^3,7.0^6,10.0^24,28]dotriaconta-1(26),3(32),4,6,8,16,18,24,27,30-decaen-2-yl]acetic acid]	100%	6.5	fold induction at 3 mg/kg ([3]; Liver): 22.2
Cc1c2ccc3c1nnn3CCCOCc1ccc(cc1)C(=O)N1CCc3ccc(cc3C1)C2C(C)(C)C(=O)O (stereo not shown) [Example 55, 2-methyl-2-[32-methyl-20-oxo-14-oxa-8,9,10,21-tetrazahexacyclo[19.5.3.2^16,19.1^3,7.0^6,10.0^24,28]dotriaconta-1(27),3(32),4,6,8,16,18,24(28),25,30-decaen-2-yl]propanoic acid]	100%	6.3	–
Cc1cc2cc(C)c1C(=O)N1CCc3ccc(cc3C1)C(C(C)(C)C(=O)O)c1ccc3c(nnn3CCCOC2)c1C (stereo not shown) [Example 58, 2-methyl-2-[18,30,32-trimethyl-20-oxo-14-oxa-8,9,10,21-tetrazahexacyclo[19.5.3.2^16,19.1^3,7.0^6,10.0^24,28]dotriaconta-1(27),3(32),4,6,8,16(31),17,19(30),24(28),25-decaen-2-yl]propanoic acid]	100%	4.8	–
Cc1c2ccc3c1nnn3CCCOCc1cc(Cl)c(c(Cl)c1)C(=O)N1CCc3ccc(cc3C1)C2C(C)(C)C(=O)O (stereo not shown) [Example 60, 2-[18,30-dichloro-32-methyl-20-oxo-14-oxa-8,9,10,21-tetrazahexacyclo[19.5.3.2^16-19.1^3,7.0^6,10.0^24,28]dotriaconta-1(27),3(32),4,6,8,16,18,24(28),25,30-decaen-2-yl]-2-methylpropanoic acid]	100%	2.9	–
Cc1c2ccc3c1nnn3CCCCCc1ccc(cc1)C(=O)N1CCc3ccc(cc3C1)C2C(C)(C)C(=O)O (stereo not shown) [Example 62, 2-methyl-2-[32-methyl-20-oxo-8,9,10,21-tetrazahexacyclo[19.5.3.2^16,19.1^3,7.0^6,10.0^24,28]dotriaconta-1(27),3(32),4,6,8,16(31),17,19(30),24(28),25-decaen-2-yl]propanoic acid]	–	6.9	NRF2 binding inhibitory activity (at 100 nM) ([2]; 0.1 µM): 100%
Cc1c2ccc3c1nnn3CCCCOc1cc(Cl)c(c(Cl)c1)C(=O)N1CCc3ccc(cc3C1)C2C(C)(C)C(=O)O (stereo not shown) [Example 65, 2-[18,30-dichloro-32-methyl-20-oxo-15-oxa-8,9,10,21-tetrazahexacyclo[19.5.3.2^16,19.1^3,7.0^6,10.0^24,28]dotriaconta-1(27),3(32),4,6,8,16(31),17,19(30),24(28),25-decaen-2-yl]-2-methylpropanoic acid]	100%	3.6	–
